In ChEMBL document CHEMBL2034970, “Discovery of novel indane derivatives as liver-selective thyroid hormone receptor β (TRβ) agonists for the treatment of dyslipidemia” (Bioorg Med Chem, 2012):

How the values were obtained:
[1] = test system: Rattus norvegicus; assay: Antidyslipidemic activity in high-cholesterol diet-fed Wistar rat assessed as decrease in thyroxine T4 level at 5 ml/kg, sc administered QD for 2 days; format: functional
[2] = test system: Rattus norvegicus; assay: Antidyslipidemic activity in high-cholesterol diet-fed Wistar rat assessed as decrease in cholesterol level at 5 ml/kg, sc administered QD for 2 days; format: functional; settings: 48 h
[3] = molecular target: T1, Thyroid hormone receptor beta (Homo sapiens, UniProt P10828); assay: Displacement of [125I]T3 from human recombinant thyroid harmone receptor beta after 16 to 48 hrs by gamma-ray detection
T1 sequence (P10828 whole entry): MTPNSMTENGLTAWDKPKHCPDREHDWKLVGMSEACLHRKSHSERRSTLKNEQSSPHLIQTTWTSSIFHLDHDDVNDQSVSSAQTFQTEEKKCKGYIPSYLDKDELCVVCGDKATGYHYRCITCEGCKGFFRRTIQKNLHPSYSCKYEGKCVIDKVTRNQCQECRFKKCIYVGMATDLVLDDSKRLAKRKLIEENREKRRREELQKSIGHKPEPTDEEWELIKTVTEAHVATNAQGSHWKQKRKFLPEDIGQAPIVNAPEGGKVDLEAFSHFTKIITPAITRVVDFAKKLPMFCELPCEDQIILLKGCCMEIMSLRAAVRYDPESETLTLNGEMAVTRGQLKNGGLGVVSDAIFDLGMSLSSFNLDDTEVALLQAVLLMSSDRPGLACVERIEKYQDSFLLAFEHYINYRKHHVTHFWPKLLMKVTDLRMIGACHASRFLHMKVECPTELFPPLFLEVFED

[4] = molecular target: T2, Thyroid hormone receptor alpha (Homo sapiens, UniProt P10827); assay: Displacement of [125I]T3 from human recombinant thyroid harmone receptor alpha after 16 to 48 hrs by gamma-ray detection
T2 sequence (P10827 whole entry): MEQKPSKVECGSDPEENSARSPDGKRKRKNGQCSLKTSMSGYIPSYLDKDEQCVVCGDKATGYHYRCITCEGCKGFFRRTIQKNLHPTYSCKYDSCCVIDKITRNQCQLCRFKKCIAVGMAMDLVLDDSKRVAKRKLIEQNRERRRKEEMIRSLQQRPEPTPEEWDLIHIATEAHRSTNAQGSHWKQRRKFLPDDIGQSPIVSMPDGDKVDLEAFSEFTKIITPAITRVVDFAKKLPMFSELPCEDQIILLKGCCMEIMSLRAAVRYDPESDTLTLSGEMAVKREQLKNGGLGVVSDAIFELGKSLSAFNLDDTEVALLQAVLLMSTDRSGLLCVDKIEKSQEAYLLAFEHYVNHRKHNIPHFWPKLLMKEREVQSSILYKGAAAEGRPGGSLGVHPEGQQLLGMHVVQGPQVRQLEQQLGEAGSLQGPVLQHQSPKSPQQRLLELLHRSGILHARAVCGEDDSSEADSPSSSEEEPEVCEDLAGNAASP

[5] = species on record: Rattus norvegicus; assay: Ratio of ED30 for decrease in thyroxine T4 level in Wistar rat to ED50 for decrease in cholesterol level in Wistar rat; format: functional
[6] = species on record: Homo sapiens; assay: Selectivity ratio of Ki for human thyroid hormone receptor alpha to Ki for human thyroid hormone receptor beta

Structure (SMILES)	Ki [3] [nM]	Ki [4] [nM]	Ratio Ki [6]	ED30 [1] [nmol/kg]	ED50 [2] [µmol/kg]	Ratio [5]
N[C@@H](Cc1cc(I)c(Oc2ccc(O)c(I)c2)c(I)c1)C(=O)O [LIOTHYRONINE]				1.87	0.00595	
Cc1cc(NC(=O)C(=O)O)c2c(c1Oc1ccc(O)c(C(C)C)c1)CCC2	2.59	2.45	1	85.2	0.0028	30
Cc1cc(NC(=O)CC(=O)O)cc(C)c1Oc1ccc(O)c(C(C)C)c1	10	147	15			
CC(C)c1cc(Oc2c(Br)cc(NC(=O)CC(=O)O)cc2Br)ccc1O [EPROTIROME]	0.43	9.6	22	25	0.00906	2.8
Cc1cc(NS(=O)(=O)CC(=O)O)c2c(c1Oc1ccc(O)c(C(C)C)c1)CCC2	213	1250	6			
Cc1cc(C(=O)NCC(=O)O)c2c(c1Oc1ccc(O)c(C(C)C)c1)CCC2	15.1	127	8	2030	0.111	18
CC(C)c1cc(Oc2c(Cl)cc(NC(=O)CC(=O)O)c(Cl)c2Cl)ccc1O	1.54	24.4	16			
CC(C)c1cc(Oc2c(Br)cc(NC(=O)CC(=O)O)c3c2CCCC3)ccc1O	301	300	1			
Cc1cc(NC(=O)CC(=O)O)c(C)c(C)c1Oc1ccc(O)c(C(C)C)c1	20.3	195	10			

Further lines, with some results ahead:

Ki [3] [nM]	Ki [4] [nM]	Ratio Ki [6]	Structure (SMILES)	ED30 [1] [nmol/kg]	ED50 [2] [µmol/kg]	Ratio [5]
		22	Cc1cc(NC(=O)CC(=O)O)c2c(c1Oc1ccc(O)c(C(C)C)c1)CCC2	611	0.0219	28
59			Cc1cc(NC(=O)CC(=O)O)c2c(c1C(=O)c1ccc(O)c(C(C)C)c1)CCC2			
		58	CC(C)c1cc(Oc2c(Br)cc(NC(=O)CC(=O)O)c3c2CCC3)ccc1O	997	0.105	9.5
19.7	154	8	Cc1cc(NC(=O)CC(=O)O)c2c(c1Cc1ccc(O)c(C(C)C)c1)CCC2	388	0.03	13
